Blank lines part the entries; values can stand above or below the molecule they belong to.
Assays:
[1] = In vivo blanching assay (chromameter skin redness) on laser-irradiated forearm spots; parameters: species or system human
From the text: In the case of the blanching assay, baseline skin color (redness) measurements were then taken of each spot using a Minolta CR-300 Chromameter (Minolta Inc., NJ). The Er:YAG laser was then used to ablate six 2 mm spots on one forearm, at energies of 40, 80 and 120 mJ. A spot (negative calorimeter control) directly adjacent to the laser irradiated spots remained untouched. Subsequently, a thin film of 1% hydrocortisone ointment was applied to six of the lased spots on the treatment arm. One untouched spot on the contralateral arm was administered a thin layer of Diprolene (β-methasone), which is a strong steroid that can permeate the intact stratum corneum in an amount sufficient to cause measurable skin blanching. An occlusive patch, consisting of simple plastic wrap, was fixed with gauze and dermatological tape over all sites on both arms and left in place for two hours, after which the administered steroids were gently removed with cotton swabs. […] Finally, the skin was clinically assessed for evidence of irritation at the 26 hour evaluation.

[2] = Topical alprostadil patch on laser-perforated penis skin; type: in vivo, human; conditions: three 2 mm spots, 5 J/cm^2; patch held 45 minutes
From the text: The duration of the pulse was approximately 300 μs. The spot size was approximately 2 mm, with an energy fluence of 5 J/cm^2. Single pulses were used. Three 2 mm diameter spots were created on a flaccid penis. Subsequent to ablation a pharmaceutical preparation of alprostadil (Caverject from Pharmacia & Upjohn, Kalamazoo, Mich.) was applied to a small patch consisting of tissue paper. The patch was applied to the multiple perforated areas of the skin on the then flaccid penis and held there with adhesive tape for 45 minutes. After approximately 35 minutes, the patient obtained an erection that was sustained for more than 1 hour.

[3] = Permeation of radiolabelled corticosterone or DNA through laser-irradiated human skin in diffusion cells; type: in vitro ADME; conditions: 2 mm spot, donor removed after 15 minutes
Procedure: Pieces of human skin were placed in diffusion cells and irradiated with a single pulse of radiant energy produced by an Er:YAG laser. The spot size was 2 mm and the energy of the pulse was measured with a calibrated energy meter. After irradiation, the diffusion cells were placed in a 37 degrees Celsius heating block. Phosphate buffered saline was added to the receptor chamber below the skin and a small stir bar was inserted in the receptor chamber to keep the fluid continually mixed. Control skin was left unirradiated. Small volumes of radiolabelled compounds (either corticosterone or DNA) were then added to the donor chamber and left for 15 minutes before being removed (in the case of corticosterone) or were left for the entire duration of the experiment (in the case of the DNA). Samples were then taken from the receptor chamber at various times after application of the test compound and measured in a scintillation or gamma counter.

[4] = In vitro permeation study of tritiated water through lased human skin; type: in vitro ADME; conditions: 50 mJ (1.6 J/cm^2) to 1250 mJ (40 J/cm^2); increase at low fluences up to about 5 J/cm^2, then more-or-less constant
From the text: Histology studies on rat and human skin, irradiated either in vivo or in vitro, show little or no evidence of ablation when Er:YAG laser pulse energies less than about 100-200 mJ are used. (See, e.g., FIG. 25).

[5] = Permeation of radiolabelled drugs through Er:YAG laser-irradiated human skin in Franz diffusion cells; type: in vitro ADME
From the text: The output of the Er:YAG laser was passed through an aperture to define it's diameter as 2 mm. Human skin, purchased from a skin bank, was positioned in Franz diffusion cells. The receptor chamber of the cell was filled with 0.9% buffered saline. A single pulse, of measured energy, was used to irradiate the skin in separate diffusion cells. Control skin was left unirradiated. […] In the case of γ-interferon, a 285 mJ pulse was used, and multiple samples were irradiated. […] In the case of cortisone, either 77 mJ or 117 mJ was used. After irradiation, a stirring magnet was place in the receptor chamber of the diffusion cells and the cells were placed in a heating block held at 37° C. […] The donor was left on the skin for the duration of the experiment. At various times post-drug-application, samples were taken from the receptor chamber and the amount of drug present was assayed with either a gamma-counter, or a liquid scintillation counter.

Molecule: C[C@]12CCC(=O)C=C1CC[C@@H]1[C@@H]2[C@@H](O)C[C@@]2(C)[C@H]1CC[C@]2(O)C(=O)CO [hydrocortisone]
- erythema (reddening) of skin, chromameter measurements ([1]; 1% hydrocortisone ointment on spots lased at 40, 80, 120 mJ, occluded two hours, 2-26 hours post-irradiation): reddening was less than that seen in the control spots
- clinical assessment for irritation ([1]; 26 hour evaluation): no problems were seen

Molecule: CCCCC[C@H](O)/C=C/[C@H]1[C@H](O)CC(=O)[C@@H]1CCCCCCC(=O)O [alprostadil]
- duration of erection [2]: more than 1 hour
- time to erection [2]: approximately 35 minutes

- permeation through irradiated skin versus unirradiated controls ([3]; 77 mJ/pulse (sub-ablative)): enhanced permeation
- permeation through irradiated skin versus unirradiated controls ([3]; 117 mJ pulse): enhanced permeation
Molecule: C[C@]12C[C@H](O)[C@H]3[C@@H](CCC4=CC(=O)CC[C@@]43C)[C@@H]1CC[C@@H]2C(=O)CO [corticosterone]

Molecule: [3H]O[3H] [tritiated water]
- permeation through lased human skin [4]: increase in permeation

Molecule: CCN(CC)CC(=O)Nc1c(C)cccc1C [Lidocaine, lidocaine]
- pain on insertion of 26G-0.5 needle into lased site (30% liquid lidocaine solution applied topically for two minutes after 60 mJ pulse): no observable pain
- pain on full insertion of 22G-1 needle into lased site (30% liquid lidocaine solution, 6-minute anesthetic treatment after 60 mJ pulse): no observable pain

B1: γ-Interferon: radiolabelled gamma-interferon diluted in buffered saline (protein, UniProt P01579 24-161, looked up)
Interferon gamma: QDPYVKEAENLKKYFNAGHSDVADNGTLFLGILKNWKEESDRKIMQSQIVSFYFKLFKNFKDDQSIQKSVETIKEDMNVKFFNSNKKKRDDFEKLTNYSVTDLNVQRKAIHELIQVMAELSPAAKTGKRKRSQMLFRG
modifications: radiolabel
notes: radiolabelled gamma-interferon diluted in buffered saline
- Permeability Constant, kp [5]: 9.74 +/− 2.05 ×10^−3 cm/hr

From patent US6443945B1, “Laser assisted pharmaceutical delivery and fluid removal” (Transmedica International, Inc., priority 1993, dated 2002)
